# Experiments:
# [1] = test system: cholesterol absorption; experiment: Amount of cholesterol absorption from the digestive tract into blood; format: in vivo; conditions: male Balb/c mouse, oral 3H-cholesterol oleate, plasma radioactivity 6 hours after administration, relative to control = 1; FIG. 3
# Description: Cholesterol oleate (Amersham, 100 μCi/mL) radiolabeled with ^3H was mixed with 1% (w/v) sodium carboxylmethyl cellulose (CMC-Na), 1% (v/v) Tween 80, and a non-labeled cholesterol oleate, and then 0.1 mL of the mixture was forcibly administered into each mouse through an oral zonde so that 1 μCi could be delivered to each mouse. Here, the mouse in the control group (an 8-week old male Balb/c with body weight of 25 g) was treated with 400 μg of Orlistat (20 mg/kg), which has an inhibitory effect against cholesterol absorption, and the mouse in the experimental group (an 8-week old male Balb/c with body weight of 25 g) was treated with […] of Laetiporus sulphureus prepared in the Example after concentrating it into 0.1 mL. Six hours after the administration, blood samples were collected from the mice, and plasma was obtained by centrifuging the blood at 40° C. at the rate of 14000 rpm, and the radioactive dose was measured by a liquid scintillator (Beta counter, Beckman LS1801). The Control group was not treated with anything that may inhibit the absorption of cholesterol. The amount of cholesterol absorption was determined as a relative value by dividing the radioactive dose of each group into the radioactive dose of the control group, in which the radioactive dose of the control group was set at ‘1’.
# [2] = test system: lipid absorption; experiment: Amount of triglyceride (lipid) absorption from the digestive tract into blood; format: in vivo; conditions: male Balb/c mouse, oral 14C-triolein, plasma radioactivity 6 hours after administration, relative to control = 1; FIG. 4
# Description: Triolein (Amersham, 100 μCi/mL) radiolabeled with ^14C was mixed with 1% (w/v) sodium carboxylmethyl cellulose (CMC-Na) and 1% (v/v) Tween 80, and then 0.1 mL of the mixture was forcibly administered into each mouse through an oral zonde so that 1 μCi could be delivered to each mouse. Here, the mouse in the control group (an 8-week old male Balb/c with body weight of 25 g) was treated with 400 μg of Orlistat (20 mg/kg), which is used as an obesity treatment, and the mouse in the experimental group (an 8-week old male Balb/c with body weight of 25 g) was treated with 0.5 mL of the water extract (50 mg/mL) of Laetiporus sulphureus prepared in the Example after concentrating it into 0.1 mL. Six hours after the administration, blood samples were collected from the mice, and plasma was obtained by centrifuging the blood at 40° C. at the rate of 14000 rpm, and the radioactive dose was measured by a liquid scintillator (Beta counter, Beckman LS1801). The control group was not treated with anything. The amount of lipid absorption was determined as a relative value by dividing the radioactive dose of each group into the radioactive dose of the control group, in which the radioactive dose of the control group was set at ‘1’.
compound,measurement,setting,value
CCCCCCCCCCC[C@@H](C[C@@H]1OC(=O)[C@H]1CCCCCC)OC(=O)[C@H](CC(C)C)NC=O [Orlistat],inhibitory effect upon cholesterol absorption,[1],significant inhibitory effect
same,inhibitory effect upon lipid absorption,[2],significant inhibitory effect
